# Test results published in US12252524B2, “GIP/GLP1 co-agonist compounds” (Eli Lilly and Company, priority 2018, dated 2025).
# pEC50, pKi: −log10 of the molar value. Where two headings read alike, the source gives them in different places. Numbered stars: 1 amine (or outer) side, 2 acyl side, 3 side chain; on linkers, the order of the positions; unused ones are H or OH. Square brackets hold non-standard residues; d marks the D form. Side chains are listed from the residue outwards. Peptide text beside a SMILES is read from it. * marks the point of attachment. C20 diacid = O=C(O)CCCCCCCCCCCCCCCCCCC(=O)*; C18 diacid = O=C(O)CCCCCCCCCCCCCCCCC(=O)*; αMePhe(2-F) = C[C@](N)(Cc1ccccc1F)C(=O)O; γGlu = O=C(O)[C@H](CCC(=O)[*:2])N[*:1]; αMeF = C[C@](N)(Cc1ccccc1)C(=O)O; αMeL = CC(C)C[C@](C)(N)C(=O)O; AEEA = NCCOCCOCC(=O)O; Aib = CC(C)(N)C(=O)O
# Tests used:
# human Gcg receptor = biological target: T1, human Gcg receptor (Homo sapiens, UniProt P47871); assay: [125I]-Glucagon binding (SPA), human Gcg receptor; settings: for Ki: read-out: hGLcgR Ki, nM (SEM, n)
# T1 construct: expressed in transfected cells; crude membranes
# Method in brief: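 Scintillation counts are taken after membranes and WGA beads incubate and settle for 12 hours at room temperature. Buffer is 25 mM HEPES, pH 7.4, with CaCl2, MgCl2, bacitracin and Tween-20. Ki values, from four-parameter IC50 fits, are geometric means over independent days.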
# human GIP receptor = biological target: T2, human GIP receptor (Homo sapiens, UniProt P48546); assay: [125I]-GIP binding (SPA), human GIP receptor; settings: for Ki: read-out: hGIPR Ki, nM (SEM, n)
# T2 construct: expressed in transfected cells; crude membranes
# T2 sequence (P48546 22-466): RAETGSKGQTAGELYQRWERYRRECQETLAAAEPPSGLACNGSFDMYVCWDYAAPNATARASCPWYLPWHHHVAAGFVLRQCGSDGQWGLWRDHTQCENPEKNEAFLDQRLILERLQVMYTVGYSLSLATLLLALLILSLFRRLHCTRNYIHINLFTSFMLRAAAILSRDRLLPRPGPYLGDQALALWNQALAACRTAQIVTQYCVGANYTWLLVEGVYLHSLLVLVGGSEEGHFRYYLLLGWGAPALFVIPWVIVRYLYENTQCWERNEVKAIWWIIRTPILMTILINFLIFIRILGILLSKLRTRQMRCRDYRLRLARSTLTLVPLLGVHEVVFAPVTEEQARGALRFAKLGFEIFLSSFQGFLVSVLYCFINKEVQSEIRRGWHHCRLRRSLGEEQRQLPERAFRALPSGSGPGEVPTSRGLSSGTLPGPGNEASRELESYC
# [1] = biological target: human GLP-1 receptor (GLP-1R) (Homo sapiens, UniProt P43220); assay: cAMP pharmacological functional assay in presence of casein, hGLP-1R; type: cell-based; settings: for EC50: HEK293 cells expressing hGLP-1R, 0.1% Casein, geometric mean, read-out: hGLP1R cAMP Rel EC50 nM (SEM, n)
# [2] = biological target: T3, gastric inhibitory peptide receptor (GIPR) (Homo sapiens, UniProt P48546); assay: cAMP pharmacological functional assay in presence of casein, hGIPR; type: cell-based; settings: for EC50: HEK293 cells expressing hGIPR, 0.1% Casein, geometric mean, read-out: hGIPR cAMP Rel EC50 nM (SEM, n)
# T3 sequence (P48546 22-466): T2 sequence (P48546 22-466)
# [3] = Proteolytic stability assay in 90% pig small intestinal fluid (pSIF); type: in vitro ADME; settings: 90% pSIF, 37° C.
# Procedure: Peptides are diluted to a concentration of 0.4 mg/mL in 90% pig small intestinal fluid. After the mixing, 20 μL are immediately removed (time 0 for the time point of pre-incubation). The mixture is then incubated at 37° C. at 150 rpm. […] The sample is centrifuged at 20,000×g for 20 min at 4° C.
# The data analysis is performed using MassLynx.
# human GLP-1R [4] = biological target: T4, human GLP-1R (Homo sapiens, UniProt P43220); assay: [125I]-GLP-1 binding (SPA), human GLP-1 receptor; parameters: expressed in transfected cells; crude membranes; settings: for Ki: read-out: hGLP1R Ki, (nM) (SEM, n)
# Method in brief: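 Assay buffer: HEPES 25 mM, pH 7.4, CaCl2 2.5 mM, MgCl2 1 mM, with EDTA-free protease inhibitors. Receptor came from crude cell membranes prepared by homogenization and centrifugation at 4° C. IC50s came from four-parameter fits (maximum, minimum, IC50, Hill slope) and were expressed as Ki geometric means with SEM.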
# human GLP-1R [5] = biological target: T4, human GLP-1R; assay: GLP-1R HEK293 cell membrane [35S]GTPγS binding assay; type: biochemical; parameters: expressed in transfected cells; host or cells: HEK293 cells expressing human GLP-1R; membranes
# Method in brief: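 Membranes from HEK293 cells expressing the receptor incubated with peptide and […] [35S]GTPγS in HEPES pH 7.4 buffer with NaCl, MgCl2, saponin and BSA, 30 min at room temperature. Gαs-bound label captured by anti-Gαs antibody/SPA beads and counted; EC50 from four-parameter logistic fit.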
# [6] = Body weight in diet-induced obese C57/B16 mice, 14-day treatment; type: in vivo, C57/B16 diet-induced obese (DIO) male mice; settings: s.c., QD, DIO mice
# Procedure: C57/B16 diet-induced obese (DIO) male mice (Taconic, Germantown, NY) weighing 41-50 g are used. Animals are individually housed in a temperature-controlled (24° C.) facility with a 12 hour light/dark photoperiod (lights off at 10:00 AM and lights on at 10:00 PM), with free access to food and water. After 2 week acclimatization to the facility, mice are randomized to treatment groups (n=6/group) based on body weight so each group has similar starting mean body weight.
# Mice are treated with either vehicle (40 mM Tris-HCl at pH 8.0) or several peptides between the dose ranges of 0.03 nmol/kg to 10 nmol/kg. Treatments are subcutaneously administered to ad libitum fed DIO mice 30-90 minutes prior to the onset of the dark cycle daily (QD) for 14 days. During the course of the study, body weight and food intake are monitored daily. […]
# [formula] “0” dose group represents the vehicle-treated mice during each study. All data are expressed as mean±SEM of 5-6 mice per group. Statistical analyses are assessed by one-way ANOVA followed by Dunnett's multiple comparison test to compare treatment groups to ‘0’, dose (vehicle). *Significant differences are identified at p<0.05. Body weight change after treatment with Example compounds after 15 days. “Δ from vehicle” refers to difference between body weight at day 15 between test and vehicle groups. “% n change” refers to percent decrease in body weight between days 1 and 15 in test groups. Percent decrease in body weight for animals receiving vehicle is recorded, and is less than about 100 in each study.
# T1 sequence (P47871 26-477): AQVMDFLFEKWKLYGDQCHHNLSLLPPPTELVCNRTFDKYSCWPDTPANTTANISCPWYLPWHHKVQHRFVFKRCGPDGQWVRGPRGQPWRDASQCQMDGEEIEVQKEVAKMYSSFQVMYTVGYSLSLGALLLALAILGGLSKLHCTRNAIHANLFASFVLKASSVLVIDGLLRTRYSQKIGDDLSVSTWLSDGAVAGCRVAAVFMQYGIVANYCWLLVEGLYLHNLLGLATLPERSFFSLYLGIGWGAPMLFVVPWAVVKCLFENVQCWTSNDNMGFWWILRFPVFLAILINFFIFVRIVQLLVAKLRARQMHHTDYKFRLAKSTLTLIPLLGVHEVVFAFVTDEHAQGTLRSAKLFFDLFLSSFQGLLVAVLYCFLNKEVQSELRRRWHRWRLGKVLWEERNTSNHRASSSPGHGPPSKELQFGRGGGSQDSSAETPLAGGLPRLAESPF
# Sequence of human GLP-1 receptor (GLP-1R) (P43220 24-463): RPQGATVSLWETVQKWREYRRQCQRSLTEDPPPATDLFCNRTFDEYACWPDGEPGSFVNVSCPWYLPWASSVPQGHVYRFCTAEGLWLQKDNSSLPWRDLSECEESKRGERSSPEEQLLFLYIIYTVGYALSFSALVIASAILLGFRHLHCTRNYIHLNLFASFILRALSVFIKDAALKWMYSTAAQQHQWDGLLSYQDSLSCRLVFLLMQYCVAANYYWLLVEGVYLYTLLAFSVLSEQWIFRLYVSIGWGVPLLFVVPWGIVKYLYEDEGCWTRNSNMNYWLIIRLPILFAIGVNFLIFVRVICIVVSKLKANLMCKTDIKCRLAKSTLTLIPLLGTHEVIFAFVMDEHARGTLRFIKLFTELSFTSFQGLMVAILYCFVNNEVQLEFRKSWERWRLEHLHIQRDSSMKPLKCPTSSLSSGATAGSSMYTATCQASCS
# T4 sequence (P43220 24-463): as above
Compound,Ki (human Gcg receptor),Ki (human GIP receptor),EC50 [1],EC50 [2],percent body weight after 14-day of treatment ([6]; dose 0.03 nmol/kg),percent body weight after 14-day of treatment ([6]; dose 0.1 nmol/kg),percent body weight after 14-day of treatment ([6]; dose 0.3 nmol/kg),percent body weight after 14-day of treatment ([6]; dose 1 nmol/kg),percent body weight after 14-day of treatment ([6]; dose 3 nmol/kg),percent body weight after 14-day of treatment ([6]; dose 10 nmol/kg),Ki (human GLP-1R [4]),further results
CC[C@H](C)[C@H](NC(=O)[C@H](CC(C)C)NC(=O)[C@](C)(Cc1ccc(O)cc1)NC(=O)[C@@H](CCC(=O)O)NC(=O)[C@@H](NC(=O)[C@H](Cc1ccccc1)NC(=O)[C@H](CCC(=O)O)NC(=O)C(C)(C)NC(=O)[C@H](CCC(N)=O)NC(=O)[C@H](C)NC(=O)[C@H](CCCCNC(=O)COCCOCCNC(=O)COCCOCCNC(=O)CC[C@H](NC(=O)CCCCCCCCCCCCCCCCC(=O)O)C(=O)O)NC(=O)[C@H](CCCN)NC(=O)[C@H](CC(=O)O)NC(=O)[C@H](CC(C)C)NC(=O)[C@](C)(CC(C)C)NC(=O)[C@@H](NC(=O)[C@H](CO)NC(=O)[C@@H](NC(=O)[C@H](CC(=O)O)NC(=O)[C@H](CO)NC(=O)[C@@H](NC(=O)[C@](C)(Cc1ccccc1F)NC(=O)[C@@H](NC(=O)CNC(=O)[C@H](CCC(=O)O)NC(=O)C(C)(C)NC(=O)[C@@H](N)Cc1ccc(O)cc1)[C@@H](C)O)[C@@H](C)O)C(C)C)[C@@H](C)CC)[C@@H](C)CC)C(=O)N[C@@H](CCC(=O)O)C(=O)NCC(=O)NCC(=O)N1CCC[C@H]1C(=O)N[C@@H](CO)C(=O)N[C@@H](CO)C(=O)NCC(=O)N[C@@H](C)C(=O)N1CCC[C@H]1C(=O)N1CCC[C@H]1C(=O)N1CCC[C@H]1C(=O)N[C@@H](CO)C(N)=O [Example 5],,,,,,,,,,,,"pKi (human Gcg receptor): 6.28; pKi (human GIP receptor): 10.21; pEC50 [1]: 10.79; pEC50 [2]: 10.51; percentage of peptide not cleaved using pSIF ([3]; 0 min): 100%; remaining at 0.5 h, 0.4 mg/mL ([3]; pig, 90% pig small intestinal fluid (pSIF), 30 min, read-out: percentage of peptide not cleaved using pSIF): 76.9%; remaining at 0.75 h, 0.4 mg/mL ([3]; pig, 90% pig small intestinal fluid (pSIF), 45 min, read-out: percentage of peptide not cleaved using pSIF): 56.8%; remaining at 1 h, 0.4 mg/mL ([3]; pig, 90% pig small intestinal fluid (pSIF), 60 min, read-out: percentage of peptide not cleaved using pSIF): 60.7%; pKi (human GLP-1R [4]): 9.04; pEC50 (human GLP-1R [5]): 9.71"
CC[C@H](C)[C@H](NC(=O)[C@H](CC(C)C)NC(=O)[C@H](Cc1ccc(O)cc1)NC(=O)[C@H](CCC(=O)O)NC(=O)[C@@H](NC(=O)[C@H](Cc1ccccc1)NC(=O)[C@H](CCC(=O)O)NC(=O)C(C)(C)NC(=O)[C@H](CCC(N)=O)NC(=O)[C@H](C)NC(=O)[C@H](CCCCNC(=O)COCCOCCNC(=O)COCCOCCNC(=O)CC[C@H](NC(=O)CCCCCCCCCCCCCCCCC(=O)O)C(=O)O)NC(=O)[C@H](CCC(=O)O)NC(=O)[C@H](CC(=O)O)NC(=O)[C@H](CC(C)C)NC(=O)[C@](C)(CC(C)C)NC(=O)[C@@H](NC(=O)[C@H](CO)NC(=O)[C@H](Cc1ccc(O)cc1)NC(=O)[C@H](CC(=O)O)NC(=O)[C@H](CO)NC(=O)[C@@H](NC(=O)[C@](C)(Cc1ccccc1F)NC(=O)[C@@H](NC(=O)CNC(=O)[C@H](CCC(=O)O)NC(=O)C(C)(C)NC(=O)[C@@H](N)Cc1ccc(O)cc1)[C@@H](C)O)[C@@H](C)O)[C@@H](C)CC)[C@@H](C)CC)C(=O)N[C@@H](CCC(=O)O)C(=O)NCC(=O)NCC(N)=O [Example 104] (H-Y[Aib]EGT[αMePhe(2-F)]TSDYSI[αMeL]LDEK([AEEA-AEEA-γGlu-C18 diacid])AQ[Aib]EFIEYLIEGG-NH2),123 nM,0.0565 nM,0.0248 nM,0.0323 nM,94.0%,94.1%,89.0%,82.7%,70.8%,71.3%,3.91 nM,
CC[C@H](C)[C@H](NC(=O)[C@H](CC(C)C)NC(=O)[C@H](Cc1ccc(O)cc1)NC(=O)[C@H](CCC(=O)O)NC(=O)[C@@H](NC(=O)[C@H](Cc1ccccc1)NC(=O)[C@H](CCC(=O)O)NC(=O)C(C)(C)NC(=O)[C@H](CCC(N)=O)NC(=O)[C@H](C)NC(=O)[C@H](CCCCNC(=O)COCCOCCNC(=O)COCCOCCNC(=O)CC[C@H](NC(=O)CCCCCCCCCCCCCCCCCCC(=O)O)C(=O)O)NC(=O)[C@H](CCCCN)NC(=O)[C@H](CC(=O)O)NC(=O)[C@H](CC(C)C)NC(=O)[C@](C)(CC(C)C)NC(=O)[C@@H](NC(=O)[C@H](CO)NC(=O)[C@H](Cc1ccc(O)cc1)NC(=O)[C@H](CC(=O)O)NC(=O)[C@H](CO)NC(=O)[C@@H](NC(=O)[C@](C)(Cc1ccccc1)NC(=O)[C@@H](NC(=O)CNC(=O)[C@H](CCC(=O)O)NC(=O)C(C)(C)NC(=O)[C@@H](N)Cc1ccc(O)cc1)[C@@H](C)O)[C@@H](C)O)[C@@H](C)CC)[C@@H](C)CC)C(=O)N[C@@H](CCC(=O)O)C(=O)NCC(=O)NCC(=O)N1CCC[C@H]1C(=O)N[C@@H](CO)C(=O)N[C@@H](CO)C(=O)NCC(N)=O [Example 123] (H-Y[Aib]EGT[αMeF]TSDYSI[αMeL]LDKK([AEEA-AEEA-γGlu-C20 diacid])AQ[Aib]EFIEYLIEGGPSSG-NH2),80.1 nM,0.0469 nM,0.0344 nM,0.0423 nM,94.7%,90.5%,86.5%,81.3%,75.1%,68.6%,1.31 nM,
